Assay [1] relates to Toxizität des Yohimbins. In words: Potentiation of yohimbine toxicity. The class given is in vivo, Maus. The settings on record: for minimal effective dose: Mus musculus, ip; for Erste wirksame Dosis Yohimbin: mouse, i.p. As to the method: Wirkung auf die Toxizität des Yohimbins
Zur Zeit 0 erhalten die Mäuse entweder destilliertes Wasser oder verschiedene zu untersuchende Verbindungen i.p. 30 Minuten danach verabreicht man ihnen subkutan eine infratoxische Dosis von 25 mg/kg Yohimbinchlorhydrat.
Die Mortalität wird jede Stunde über einen Zeitraum von 4 Stunden verfolgt und dann nach 24 Stunden notiert.
Die eine antidepressive Aktivität besitzenden Produkte verursachen eine Potenzierung der Toxizität des Yohimbins.

In assay [2] the test system is Motoraktivität. In words: Actimetry (motor activity, photocell actimeter). The class given is in vivo, Maus. As to conditions: mouse; direction of change of motor activity. The source says: Die Motoraktivität wird mittels Photozellenaktimetern bestimmt (Boissier und Simon, Arch. Int. Pharmacodyn. 1965, 158, 212-221).
Die Mäuse (10 oder ein Vielfaches von 10 pro Gruppe) werden unmittelbar nach i.p. Verabreichung der zu untersuchenden Verbindungen in das Aktimeter eingesetzt. Die Motoraktivität wird danach bis zur 60. Minute gemessen. De Zähler werden nach 30 Minuten abgelesen und dann auf 0 zurückgestellt und im Verlauf von 30 Minuten alle 10 Minuten abgelesen.
Die Beweglichkeit der mit den verschiedenen Verbindungen behandelten Tiere wird mit derjenigen einer destilliertes Wasser erhaltenden Kontrollgruppe verglichen.
Die eine psychostimulierende Aktivität besitzenden Produkte verursachen eine Zunahme der Beweglichkeit.

The subject of assay [3] is durch Reserpin induzierten Hypothermie. The experiment in a line: Antireserpine activity (reserpine-induced hypothermia). The class given is in vivo, Maus. On the procedure: Zur Zeit 0 erhalten die Mäuse intraperitoneal Reserpin (2,5 mg/kg).
4 Stunden danach, wenn die Hypothermie genügend stark erscheint (30 bis 33°C), verabreicht man die verschiedenen zu untersuchenden Verbindungen i.p. oder p.o. Alle 30 Minuten über einen Zeitraum von 2 Stunden mißt man die Rektaltemperatur mit einer auf konstante Tiefe eingeführten, ein Thermoelement tragenden Sonde. Die Rektaltemperatur der mit verschiedenen erfindungsgemäßen Verbindungen behandelten Tiere wird mit der Temperatur einer Kontrollgruppe verglichen, die destilliertes Wasser auf die gleiche Weise wie die untersuchten Verbindungen erhält.
Die Akinesie (fehlende Bewegungen) und Ptose (Öffnungsgrad des Augenlids von 0 bis 4 nach Rubin u.a 1957) werden ebenfalls alle 30 Minuten über einen Zeitraum von 2 Stunden bewertet.
Die eine antidepressive Aktivität besitzenden Produkte wirken der durch Reserpin induzierten Hypothermie entgegen. Für jede Dosis der verabreichten Verbindung berechnet man die prozentuale Hemmung der Hypothermie.

In assay [4] the test system is Apomorphin 16 mg/kg. In words: Antiapomorphine activity (apomorphine 16 mg/kg s.c., hypothermia). It is filed as in vivo, Maus. On the procedure:
Zur Zeit 0 nach Ausgleich der Reaktaltemperaturen werden die Mäuse (6 pro Gruppe) in deren Beobachtung gestattende Einzelkäfige (11 x 3,5 x 4 cm) eingeetzt. 30 Minuten nach i.p. bzw. p.o. Verabreichung der Testsubstanz erhalten sie Apomorphin subkutan in einer Dosis von 16 mg/kg. Die Rektaltemperatur wird 30 Minuten nach dem Apomorphin gemessen. Die Kontrolltiere erhalten destilliertes Wasser statt der zu untersuchenden Verbindungen. Die bei diesen Kontrolltieren, die 16 mg/kg Apomorphin erhalten haben, beobachtete Hypothermie liegt im Durchschnitt bei 33°C. Für jede Verbindungsdosis berechnet man die prozentuale Hemmung der Hypothermie.

The test system of assay [5] is Maus. The experiment in a line: Tail suspension test. The class given is in vivo. As to conditions: ip; mouse, i.p.; footnote of Tabelle 1; read-out: tail suspension test= positiv ab. The text has this: Schwanzaufhängungstest an der Maus wie von Stéru u.a. beschrieben (Psychopharmacology 85, 367-370, 1985).
Die Substanzen werden intraperitoneal 30 Minuten vor dem Test verabreicht und die Tiese isoliert (10 Mäuse pro Dosis).
Man bewertet die Dauer der Unbeweglichkeit, ausgedrückt in Sekunden über die 6 Minuten des Tests. Man untersucht auf eine Verkürzung dieser Unbeweglichkeitszeit.

For assay [6], the system named is L-5-Hydroxytryptophan. In words: Potentiation of L-5-hydroxytryptophan effects (head twitches, tremor). The settings on record: mouse, 1 mg/kg i.p., 30 min before L-5 HTP 4 mg/kg i.p. The class given is in vivo, Maus. On the procedure:
L-5 HTP induziert an der Maus ruckartige Bewegungen des Kopfes (Kopfzuckungen). Die zu untersuchenden Substanzen werden den Tieren (10 Mäuse pro Dosis) intraperitoneal 30 Minuten vor dem L-5 HTP (4 mg/kg intraperitoneal) verabreicht. Die ruckartigen Kopfbewegungen und der Tremor werden 1 Minutre lang alle 10 Minuten im Verlauf einer Stunde bewertet. Desimipramin und Indalpin sind die Kontrol-(Vergleichs-)verbindungen. Ein antidepressiver Effekt zeigt sich durch eine Zunahme der ruckartigen Kopfbewegungen und des Tremors.

For assay [7], the system named is Maus. The experiment in a line: Hot plate test (licking and jumping), analgesia. The class given is in vivo. On the procedure:
Heizplattentest: Lecken und Springen, wie von Jacob und Blozovski beschrieben (Arch. Int. Pharmacodyn. 133, 296-209, 1961).
Die in Sekunden ausgedrückten Reaktionszeiten auf einer Heizplatte werden unter Berücksichtigung des Leckens der Vorderpfoten und Springen des Tieres als Kriterien bewertet. Die beiden Reaktionen werden am selben, anfänglich untrainierten Tier mit einer maximalen Ansprechzeit (Obergrenze) von 240 Sekunden beobachtet. Die Temperatur der Platte wird auf 56,6°C gehalten.
Morphin als positive Kontrolle wird subkutan und die übrigen Substanzen (mg/kg) werden intraperitoneal 30 Minuten vor dem Test verabreicht. Positives Ansprechen zeigt sich in einer Zunahme der Reaktionszeit.
Wird der schadensverhütenden Wirkung eine Substanz durch Naloxon entegengewirkt, so kann man schließen, daß die Substanz tatsächlich eine analgetische Wirkung besitzt.
For orientation: Thermal pain tests record how soon the animal reacts.

[8] abbreviates: read-out: Erste wirksame Dosis Yohimbin, mouse, i.p., only or lowest value of the cell.
Where [9] appears, read: Mus musculus, ip, read-out: Erste wirksame Dosis Reserpin, mouse, i.p., only or lowest value of the cell.
Where [10] appears, read: Mus musculus, ip, read-out: Erste wirksame Dosis Apomorphin 16 mg/kg, mouse, i.p., only or lowest value of the cell.
The mark [11] stands for this setting: ip, mouse, i.p., only or lowest value of the cell, read-out: Erste wirksame Dosis Reserpin.
Where [12] appears, read: ip, mouse, i.p., only or lowest value of the cell, read-out: Erste wirksame Dosis Apomorphin 16 mg/kg.
Setting [13] is: mouse, i.p., only or lowest value of the cell.
[14] abbreviates: Mus musculus, read-out: Erste wirksame Dosis Apomorphin 16 mg/kg, mouse, further value in the same cell, route not stated (lowest = i.p.; p.o. also tested).
Setting [15] is: only or lowest value of the cell.
Where [16] appears, read: mouse, reaction time, 8 mg/kg i.p., plate 56,6°C.
Where [17] appears, read: mouse, Tabelle 5a, Naloxon alone 0,5 mg/kg.

Molecules are shown by their SMILES. Several values for one entry are separate records, joined by “and”; a condition that tells them apart may be missing. Equal entries are not always repeated. Structures can show the parent of a compound that is named as a salt. Where two headings read alike, the source gives them in different places.

The values below come from patent publication EP0273199A2, “Uses of 3,4-diphenyl piperidine derivatives or medicines, 3,4-diphenyl piperidine derivatives, and process for their preparation” (LABORATOIRES HOECHST S.A., priority 1986, dated 1988).

With `Oc1ccc([C@@H]2CCNC[C@H]2c2ccccc2)cc1` (racemic) [7 (1.Stufe), trans-4-(4-Hydroxyphenyl)-3-phenylpiperidin-bromhydrat], the minimal effective dose in assay [1] (setting [8]) was 4 mg/kg; in assay [1] (read-out: Erste wirksame Dosis Yohimbin, mouse, further value in the same cell, route not stated (lowest = i.p.)), 16 mg/kg; in assay [3] (setting [9]), 32 mg/kg; in assay [4] (setting [10]) it was 0.5 mg/kg. Besides, the Aktimetrie entry in assay [2] is “↘”.

In the case of `COc1ccc([C@@H]2CCNC[C@H]2c2ccccc2)cc1` (racemic) [Beispiel 2, trans-4-(4-Methoxyphenyl)-3-phenylpiperidinchlorhydrat], the Aktimetrie result in assay [2] is listed as “↘”. Further, the minimal effective dose was 4 mg/kg in assay [3] (setting [11]); no less than 8 mg/kg in assay [5]; 1 mg/kg in assay [4] (setting [12]); 2 mg/kg in assay [4] (mouse, further value in the same cell, route not stated (lowest = i.p.; p.o. also tested), read-out: Erste wirksame Dosis Apomorphin 16 mg/kg).

Regarding `CC(=O)Oc1ccc([C@@H]2CCNC[C@H]2c2ccccc2)cc1` (racemic) [Beispiel 11, trans-4-(4-Acetoxyphenyl)-3-phenylpiperidinchlorhydrat], the minimal effective dose in assay [1] (setting [8]) was 16 mg/kg; in assay [3] (setting [11]), 4 mg/kg; in assay [4] (setting [12]), 1 mg/kg.

For `Cc1ccc([C@@H]2CCNC[C@H]2c2ccccc2)cc1` (relative stereo) [10 (Base), trans-4-(4-Methylphenyl)-3-phenylpiperidin], the minimal effective dose came out at 16 mg/kg in assay [1] (setting [8]), 16 mg/kg in assay [4] (setting [10]) and 32 mg/kg in assay [4] (setting [14]). Further, the Aktimetrie result in assay [2] was “↘”. The “Erste wirksame Dosis Reserpin” value in assay [3] (setting [13]) was 16 mg/kg.

Consider `Cc1ccc([C@@H]2CCNC[C@H]2c2ccccc2)cc1` (relative stereo) [10 (HCl-Salz), trans-4-(4-Methylphenyl)-3-phenylpiperidin], for which, in assay [2], the Aktimetrie result is on record as “↘”. Also, the minimal effective dose in assay [3] (Mus musculus, read-out: Erste wirksame Dosis Reserpin, mouse, further value in the same cell, route not stated (lowest = i.p.; p.o. also tested)) stood at 16 mg/kg. Further, the “Erste wirksame Dosis Reserpin” value in assay [3] (setting [13]) was determined as 4 mg/kg. Besides, the “Erste wirksame Dosis Apomorphin 16 mg/kg” value in assay [4] (setting [13]) amounted to 16 mg/kg.

Take `c1ccc([C@@H]2CCNC[C@H]2c2ccccc2)cc1` (relative stereo) [21 (HCl-Salz), trans-3,4-Diphenylpiperidin]: the “Erste wirksame Dosis Yohimbin” value in assay [1] (setting [15]) was 16 mg/kg. Also, the Aktimetrie result in assay [2] is on record as “↗”. For the same compound, the “Erste wirksame Dosis Reserpin” value in assay [3] (setting [13]) is 4 mg/kg. In assay [4] (setting [13]), the “Erste wirksame Dosis Apomorphin 16 mg/kg” value was determined as 4 mg/kg.

In the case of `Clc1ccc(C2CNCCC2c2ccccc2)cc1` (stereo not drawn) [8 (Base), trans-3-(4-Chlorphenyl)-4-phenylpiperidin], in assay [2], the Aktimetrie result is “↘”. In addition, the minimal effective dose is 8 mg/kg in assay [3] (setting [9]) and 16 mg/kg in assay [4] (setting [10]).

With `Clc1ccc(C2CNCCC2c2ccccc2)cc1` (stereo not drawn) [8 (HCl-Salz), trans-3-(4-Chlorphenyl)-4-phenylpiperidin], the minimal effective dose in assay [1] (setting [8]) was 16 mg/kg. Also, the Aktimetrie entry in assay [2] is “↘”. Moreover, in assay [3] (setting [13]), the “Erste wirksame Dosis Reserpin” value is 4 mg/kg. Besides, the “Erste wirksame Dosis Apomorphin 16 mg/kg” value in assay [4] (setting [13]) is given as 8 mg/kg.

As to `Clc1ccc([C@@H]2CCNC[C@H]2c2ccccc2)cc1Cl` [15 (Base)], the “Erste wirksame Dosis Yohimbin” value in assay [1] (setting [15]) worked out at 4 mg/kg. The Aktimetrie result in assay [2] is “↗”. Also, the “Erste wirksame Dosis Reserpin” value in assay [3] (setting [13]) is 0,5 mg/kg. Besides, in assay [4] (setting [13]), the “Erste wirksame Dosis Apomorphin 16 mg/kg” value is 0,5 mg/kg.

For the compound `Clc1ccc(C2CNCCC2c2ccccc2)cc1Cl` (stereo not drawn) [Beispiel 13, trans-3-(3,4-Dichlorphenyl)-4-phenyl-piperidin-maleinat], the results for the minimal effective dose in assay [1] (setting [8]), in assay [3] (setting [9]) and in assay [4] (setting [10]) were 16 mg/kg, 8 mg/kg and 4 mg/kg, respectively. In assay [2], the Aktimetrie entry is given as “↘”.

Regarding `Clc1ccc([C@@H]2CCNC[C@H]2c2ccccc2)cc1` [Beispiel 18], the minimal effective dose in assay [1] (setting [8]) turned out to be 1 mg/kg; in assay [3] (setting [9]), 0.5 mg/kg; in assay [4] (setting [10]), 0.5 mg/kg; in assay [4] (setting [14]), 2 mg/kg. Besides, in assay [2], the Aktimetrie result is recorded as “↗”.

Consider `c1ccc2c(CCC3CCNCC3)c[nH]c2c1` [Indalpin, reference compound], for which, in assay [6], the Tremor was 2,0 ± 0,7 and the “ruckartige Kopfbewegungen” value is reported as 4,1 ± 0,7 p < 0,01. In assay [7] (setting [16]), the Pfotenlecken is on record as 8,4 ± 1,2 p < 0,02 Sekunden and the Sprünge was 132 ± 12 p ± 0,01 Sekunden.

On to `CN1CC[C@]23c4c5ccc(O)c4O[C@H]2[C@@H](O)C=C[C@H]3[C@H]1C5` [Morphin, reference compound], for which, in assay [7] (in vivo, sc, 2 mg/kg), the Pfotenlecken is on record as 8,1 ± 0,6 p < 0,01 Sekunden and the Sprünge is 158 ± 17 p < 0,01 Sekunden.

For `C=CCN1CC[C@]23c4c5ccc(O)c4O[C@H]2C(=O)CC[C@@]3(O)[C@H]1C5` [Naloxon, reference compound], in assay [7] (setting [17]), the Pfotenlecken was 5,5 ± 0,3 Sekunden and 5,2 ± 0,3 Sekunden; the Sprünge was 63 ± 6 Sekunden and 67 ± 5 Sekunden.
